# Tests used:
# [1] = tested on: ABUTH (Abutilon theophrasti); assay: Postemergence herbicidal evaluation; type: in vivo, Medic.; details: for ABUTH herbicidal rating: postemergence
# Summary of the method: (§1)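 Seedlings grown for about two weeks were sprayed postemergence and then kept under standard greenhouse care. Injury was rated visually 4–5 weeks after treatment on a 0–9 scale against untreated controls, and ratings from repeat tests were averaged.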
# GALAP (Galium aparine) [2] = assay: Postemergence herbicidal evaluation; type: in vivo; details: for GALAP herbicidal rating: postemergence
# Summary of the method: as §1
# [3] = tested on: IPOHE (Ipomoea hederacea); assay: Postemergence herbicidal evaluation; type: in vivo, (L.) Jacq.; details: for IPOHE herbicidal rating: postemergence
# Summary of the method: as §1
# SETVI (Setaria viridis) [4] = assay: Postemergence herbicidal evaluation; type: in vivo, (L.) Beau; details: for SETVI herbicidal rating: postemergence
# Summary of the method: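 Seedlings grown about two weeks were sprayed with compound in 50/50 acetone/water containing 0.5% TWEEN 20, at about 0.0040 to 1.000 kg/ha via nozzle at 40 psi. Plants were kept under greenhouse conditions and visually rated on a 0-9 scale versus control four to five weeks after treatment; replicate tests averaged.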
# [5] = tested on: GLXMAW (Soybean, Williams); assay: Postemergence herbicidal evaluation; type: in vivo, Glycine max, (L.) Merr. cv Williams; details: for GLXMAW herbicidal rating: postemergence
# Summary of the method: as §1
# [6] = tested on: TRZAWR (Wheat, Winter, cv Riband); assay: Postemergence herbicidal evaluation; type: in vivo, Triticum aestivum; details: for TRZAWR herbicidal rating: postemergence
# Summary of the method: as §1
# [7] = tested on: ABUTH (Abutilon theophrasti); assay: Preemergence herbicidal evaluation; type: in vivo, Medic.; details: rated 4-5 weeks after treatment
# [8] = tested on: AMBEL (Ambrosia artemisifolia); assay: Preemergence herbicidal evaluation; type: in vivo, L.; details: rated 4-5 weeks after treatment
# Summary of the method: (§2)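 Greenhouse preemergence test: freshly planted cups were sprayed once with an aqueous acetone solution of compound. Injury was judged visually on a 0–9 scale relative to a control, four to five weeks later.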
# [9] = tested on: CASOB (Cassia obtusifolia); assay: Preemergence herbicidal evaluation; type: in vivo, L.; details: rated 4-5 weeks after treatment
# Summary of the method: as §2
# [10] = tested on: CHEAL (Chenopodium album); assay: Preemergence herbicidal evaluation; type: in vivo, L.; details: rated 4-5 weeks after treatment
# Summary of the method: as §2
# GALAP (Galium aparine) [11] = assay: Preemergence herbicidal evaluation; type: in vivo; details: rated 4-5 weeks after treatment
# Summary of the method: as §2
# [12] = tested on: ECHCG (Echinochloa crus-galli); assay: Preemergence herbicidal evaluation; type: in vivo, (L.) Beau; details: rated 4-5 weeks after treatment
# Summary of the method: as §2
# SETVI (Setaria viridis) [13] = assay: Preemergence herbicidal evaluation; type: in vivo, (L.) Beau; details: rated 4-5 weeks after treatment
# Summary of the method: as §2
# ZEAMX (Corn, Field) = assay: Preemergence herbicidal evaluation; type: in vivo, Zea mays, L.; details: rated 4-5 weeks after treatment
# [14] = tested on: CYPSE (Cyperus serotinus); assay: Flooded paddy, preemergence weed control; type: in vivo, Rottb.; details: rated 3-4 weeks after treatment, 0-9 rating scale
# Summary of the method: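 Seeds or propagules were planted 0.5 cm deep in silt loam and flooded to 1.5–3 cm. Compounds in 50/50 v/v aqueous/acetone were pipetted into the flood water at about 0.0080 to 0.1250 kg/ha. After 3–4 weeks in the greenhouse, effect was rated visually on a 0–9 scale versus untreated control.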
# [15] = tested on: MOOVA (Monochoria vaginalis); assay: Flooded paddy, preemergence weed control; type: in vivo, Presl.; details: rated 3-4 weeks after treatment, 0-9 rating scale
# Summary of the method: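 Preemergence, flooded: propagules planted at 0.5 cm depth in silt loam, water level maintained at 1.5 to 3 cm over soil, containers kept on greenhouse benches. Activity scored 0-9 by eye relative to a control plant.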
# ORYSAT (Rice, Tebonnet) = assay: Flooded paddy, post-transplant rice tolerance; type: in vivo, Oryza sativa, (L.) Tebonnet; details: flooded paddy, post-transplant rice, rated 3-4 weeks after treatment, 0-9 rating scale
# Summary of the method: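 Two ten-day-old Tebonnet rice seedlings transplanted into silt loam, then flooded with water held at 1.5–3 cm above soil; herbicide applied post-transplant. Plants kept in greenhouse and rated visually 0–9 versus untreated control for stand, vigor, malformation, size and chlorosis.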
compound,measurement,setting,value
"Cc1cccnc1-c1nsc2cc(F)c(N3C(=O)C4=C(CCCC4)C3=O)cc12 [Compound 46, N-[6-fluoro-3-(3-methyl-2-pyridyl)-1,2-benzisothiazol-5-yl]-1-cyclohexene-1,2-dicarboximide]","Postemergence herbicidal rating, ABUTH",[1]; rate 0.0320 kg/ha,9.0
same,"Postemergence herbicidal rating, ABUTH",[1]; rate 0.0620 kg/ha,9.0
same,"Postemergence herbicidal rating, ABUTH",[1]; rate 0.1250 kg/ha,9.0
same,"Postemergence herbicidal rating, GALAP",GALAP (Galium aparine) [2]; rate 0.0320 kg/ha,4.0
same,"Postemergence herbicidal rating, GALAP",GALAP (Galium aparine) [2]; rate 0.0620 kg/ha,6.0
same,"Postemergence herbicidal rating, GALAP",GALAP (Galium aparine) [2]; rate 0.1250 kg/ha,5.0
same,"Postemergence herbicidal rating, IPOHE",[3]; rate 0.0320 kg/ha,9.0
same,"Postemergence herbicidal rating, IPOHE",[3]; rate 0.0620 kg/ha,9.0
same,"Postemergence herbicidal rating, IPOHE",[3]; rate 0.1250 kg/ha,9.0
same,"Postemergence herbicidal rating, SETVI",SETVI (Setaria viridis) [4]; rate 0.0320 kg/ha,3.0
same,"Postemergence herbicidal rating, SETVI",SETVI (Setaria viridis) [4]; rate 0.0620 kg/ha,4.0
same,"Postemergence herbicidal rating, SETVI",SETVI (Setaria viridis) [4]; rate 0.1250 kg/ha,9.0
same,"Postemergence herbicidal rating, GLXMAW",[5]; rate 0.0320 kg/ha,6.0
same,"Postemergence herbicidal rating, GLXMAW",[5]; rate 0.0620 kg/ha,7.5
same,"Postemergence herbicidal rating, GLXMAW",[5]; rate 0.1250 kg/ha,7.5
same,"Postemergence herbicidal rating, TRZAWR",[6]; rate 0.0320 kg/ha,4.0
same,"Postemergence herbicidal rating, TRZAWR",[6]; rate 0.0620 kg/ha,4.5
same,"Postemergence herbicidal rating, TRZAWR",[6]; rate 0.1250 kg/ha,5.0
same,Preemergence herbicidal rating ABUTH,[7]; Rate 0.0620 kg/ha,5.0
same,Preemergence herbicidal rating ABUTH,[7]; Rate 0.1250 kg/ha,4.0
same,Preemergence herbicidal rating ABUTH,[7]; Rate 0.2500 kg/ha,9.0
same,Preemergence herbicidal rating AMBEL,[8]; Rate 0.0620 kg/ha,1.0
same,Preemergence herbicidal rating AMBEL,[8]; Rate 0.1250 kg/ha,6.0
same,Preemergence herbicidal rating AMBEL,[8]; Rate 0.2500 kg/ha,9.0
same,Preemergence herbicidal rating CASOB,[9]; Rate 0.0620 kg/ha,1.0
same,Preemergence herbicidal rating CASOB,[9]; Rate 0.1250 kg/ha,1.0
same,Preemergence herbicidal rating CASOB,[9]; Rate 0.2500 kg/ha,3.0
same,Preemergence herbicidal rating CHEAL,[10]; Rate 0.0620 kg/ha,7.0
same,Preemergence herbicidal rating CHEAL,[10]; Rate 0.1250 kg/ha,9.0
same,Preemergence herbicidal rating CHEAL,[10]; Rate 0.2500 kg/ha,9.0
same,Preemergence herbicidal rating GALAP,GALAP (Galium aparine) [11]; Rate 0.1250 kg/ha,0.0
same,Preemergence herbicidal rating GALAP,GALAP (Galium aparine) [11]; Rate 0.2500 kg/ha,0.0
same,Preemergence herbicidal rating ECHCG,[12]; Rate 0.0620 kg/ha,1.0
same,Preemergence herbicidal rating ECHCG,[12]; Rate 0.1250 kg/ha,5.0
same,Preemergence herbicidal rating ECHCG,[12]; Rate 0.2500 kg/ha,8.0
same,Preemergence herbicidal rating SETVI,SETVI (Setaria viridis) [13]; Rate 0.0620 kg/ha,9.0
same,Preemergence herbicidal rating SETVI,SETVI (Setaria viridis) [13]; Rate 0.1250 kg/ha,9.0
same,Preemergence herbicidal rating SETVI,SETVI (Setaria viridis) [13]; Rate 0.2500 kg/ha,9.0
same,Preemergence herbicidal rating ZEAMX,"ZEAMX (Corn, Field); Rate 0.0620 kg/ha",0.0
same,Preemergence herbicidal rating ZEAMX,"ZEAMX (Corn, Field); Rate 0.1250 kg/ha",0.0
same,Preemergence herbicidal rating ZEAMX,"ZEAMX (Corn, Field); Rate 0.2500 kg/ha",0.0
same,"herbicidal rating, CYPSE",[14]; rate 0.1250 kg/ha,0.0
same,"herbicidal rating, MOOVA",[15]; rate 0.0320 kg/ha,7.0
same,"herbicidal rating, MOOVA",[15]; rate 0.1250 kg/ha,7.0
same,"herbicidal rating, ORYSAT (rice tolerance)","ORYSAT (Rice, Tebonnet); rate 0.0320 kg/ha",2.0
same,"herbicidal rating, ORYSAT (rice tolerance)","ORYSAT (Rice, Tebonnet); rate 0.1250 kg/ha",3.0
"Cn1c(C(F)(F)F)cc(=O)n(-c2ccc3snc(-c4nccs4)c3c2)c1=O [Compound 53, 1-methyl-3-[3-(2-thiazolyl)-1,2-benzisothiazol-5-yl]-6-(trifluoromethyl)uracil]",ABUTH herbicidal rating,[1]; rate 0.0320 kg/ha,9.0
same,ABUTH herbicidal rating,[1]; rate 0.0620 kg/ha,9.0
same,ABUTH herbicidal rating,[1]; rate 0.1250 kg/ha,9.0
same,GALAP herbicidal rating,GALAP (Galium aparine) [2]; rate 0.0320 kg/ha,2.5
same,GALAP herbicidal rating,GALAP (Galium aparine) [2]; rate 0.0620 kg/ha,3.0
same,GALAP herbicidal rating,GALAP (Galium aparine) [2]; rate 0.1250 kg/ha,7.0
same,IPOHE herbicidal rating,[3]; rate 0.0320 kg/ha,8.0
same,IPOHE herbicidal rating,[3]; rate 0.0620 kg/ha,9.0
same,IPOHE herbicidal rating,[3]; rate 0.1250 kg/ha,9.0
same,SETVI herbicidal rating,SETVI (Setaria viridis) [4]; rate 0.0320 kg/ha,2.5
same,SETVI herbicidal rating,SETVI (Setaria viridis) [4]; rate 0.0620 kg/ha,5.5
same,SETVI herbicidal rating,SETVI (Setaria viridis) [4]; rate 0.1250 kg/ha,9.0
same,GLXMAW herbicidal rating,[5]; rate 0.0320 kg/ha,6.8
same,GLXMAW herbicidal rating,[5]; rate 0.0620 kg/ha,8.3
same,GLXMAW herbicidal rating,[5]; rate 0.1250 kg/ha,8.0
same,TRZAWR herbicidal rating,[6]; rate 0.0320 kg/ha,3.3
same,TRZAWR herbicidal rating,[6]; rate 0.0620 kg/ha,4.0
same,TRZAWR herbicidal rating,[6]; rate 0.1250 kg/ha,4.0
same,Preemergence herbicidal rating ABUTH,[7]; Rate 0.0620 kg/ha,5.0
same,Preemergence herbicidal rating ABUTH,[7]; Rate 0.1250 kg/ha,7.5
same,Preemergence herbicidal rating ABUTH,[7]; Rate 0.2500 kg/ha,9.0
same,Preemergence herbicidal rating AMBEL,[8]; Rate 0.0620 kg/ha,4.0
same,Preemergence herbicidal rating AMBEL,[8]; Rate 0.1250 kg/ha,8.0
same,Preemergence herbicidal rating AMBEL,[8]; Rate 0.2500 kg/ha,8.5
same,Preemergence herbicidal rating CASOB,[9]; Rate 0.0620 kg/ha,0.0
same,Preemergence herbicidal rating CASOB,[9]; Rate 0.1250 kg/ha,1.0
same,Preemergence herbicidal rating CASOB,[9]; Rate 0.2500 kg/ha,3.0
same,Preemergence herbicidal rating CHEAL,[10]; Rate 0.0620 kg/ha,9.0
same,Preemergence herbicidal rating CHEAL,[10]; Rate 0.1250 kg/ha,9.0
same,Preemergence herbicidal rating CHEAL,[10]; Rate 0.2500 kg/ha,9.0
same,Preemergence herbicidal rating GALAP,GALAP (Galium aparine) [11]; Rate 0.0620 kg/ha,8.0
same,Preemergence herbicidal rating GALAP,GALAP (Galium aparine) [11]; Rate 0.1250 kg/ha,8.0
same,Preemergence herbicidal rating GALAP,GALAP (Galium aparine) [11]; Rate 0.2500 kg/ha,9.0
same,Preemergence herbicidal rating ECHCG,[12]; Rate 0.0620 kg/ha,2.0
same,Preemergence herbicidal rating ECHCG,[12]; Rate 0.1250 kg/ha,4.5
same,Preemergence herbicidal rating ECHCG,[12]; Rate 0.2500 kg/ha,8.5
same,Preemergence herbicidal rating SETVI,SETVI (Setaria viridis) [13]; Rate 0.0620 kg/ha,9.0
same,Preemergence herbicidal rating SETVI,SETVI (Setaria viridis) [13]; Rate 0.1250 kg/ha,9.0
same,Preemergence herbicidal rating SETVI,SETVI (Setaria viridis) [13]; Rate 0.2500 kg/ha,9.0
same,Preemergence herbicidal rating ZEAMX,"ZEAMX (Corn, Field); Rate 0.0620 kg/ha",4.0
same,Preemergence herbicidal rating ZEAMX,"ZEAMX (Corn, Field); Rate 0.1250 kg/ha",5.0
same,Preemergence herbicidal rating ZEAMX,"ZEAMX (Corn, Field); Rate 0.2500 kg/ha",7.0
same,"herbicidal rating, CYPSE",[14]; rate 0.0320 kg/ha,3.0
same,"herbicidal rating, CYPSE",[14]; rate 0.1250 kg/ha,9.0
same,"herbicidal rating, MOOVA",[15]; rate 0.0080 kg/ha,9.0
same,"herbicidal rating, MOOVA",[15]; rate 0.0320 kg/ha,9.0
same,"herbicidal rating, MOOVA",[15]; rate 0.1250 kg/ha,9.0
same,"herbicidal rating, ORYSAT (rice tolerance)","ORYSAT (Rice, Tebonnet); rate 0.0080 kg/ha",0.5
same,"herbicidal rating, ORYSAT (rice tolerance)","ORYSAT (Rice, Tebonnet); rate 0.0320 kg/ha",2.7
same,"herbicidal rating, ORYSAT (rice tolerance)","ORYSAT (Rice, Tebonnet); rate 0.1250 kg/ha",5.0

# From patent US6706663B2, “Herbicidal 3-heterocyclic substituted benzisothiazole and benzisoxazole compounds” (Wyeth, priority 2000, dated 2004)
